The target in series [1] is T1, High affinity choline transporter 1 (Homo sapiens, UniProt Q9GZV3).
T1 sequence (Q9GZV3 whole entry): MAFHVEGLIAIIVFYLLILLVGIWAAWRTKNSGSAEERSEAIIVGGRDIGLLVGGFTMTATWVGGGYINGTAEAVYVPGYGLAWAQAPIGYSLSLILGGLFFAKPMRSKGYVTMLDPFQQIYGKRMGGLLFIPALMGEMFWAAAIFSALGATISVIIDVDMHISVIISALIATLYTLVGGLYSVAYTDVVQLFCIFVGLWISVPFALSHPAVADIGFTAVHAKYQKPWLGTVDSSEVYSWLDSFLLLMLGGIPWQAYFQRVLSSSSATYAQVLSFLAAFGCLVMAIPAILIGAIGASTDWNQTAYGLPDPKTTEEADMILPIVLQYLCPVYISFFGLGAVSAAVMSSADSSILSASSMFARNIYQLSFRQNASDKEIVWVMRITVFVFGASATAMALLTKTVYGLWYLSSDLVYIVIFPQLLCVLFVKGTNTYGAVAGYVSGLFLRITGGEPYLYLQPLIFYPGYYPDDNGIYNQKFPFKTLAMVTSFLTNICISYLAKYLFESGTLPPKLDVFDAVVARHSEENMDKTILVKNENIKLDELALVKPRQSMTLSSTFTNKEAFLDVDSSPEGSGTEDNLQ
Description: Inhibition of [3H]choline uptake at human choline transporter expressed in HEK293 cells preincubated for 15 mins followed by [3H]choline addition measured after 10 to 15 mins by scintillation proximity assay. The format is cell-based. In general terms: SPA uses beads or plates that emit light when radiolabelled molecules are held near them.

The target in series [2] is T2, High affinity choline transporter 1 (Homo sapiens) (UniProt Q9GZV3).
T2 sequence (whole entry): T1 sequence (Q9GZV3 whole entry)
As to the kind of experiment: Inhibition of [3H]choline uptake at human choline transporter expressed in HEK293 cells at 5 uM preincubated for 15 mins followed by [3H]choline addition measured after 10 to 15 mins by scintillation proximity assay relative to control. In kind it is cell-based.

Another series has as its target Cytochrome P450 2D6 (Homo sapiens, UniProt P10635). Description: Inhibition of human CYP2D6. In kind it is ADME.
Series [3] can be described thus: Fraction unbound in rat brain after 4 hrs by LC-MS/MS based equilibrium dialysis method. The format is ADME, tissue-based. Background: In equilibrium dialysis free small molecules cross a membrane that holds back macromolecules.
The subject of series [4] is Rattus norvegicus. Description: Cognitive enhancing effect in rat assessed as increase in recognition index at 10 mg/kg, ip treated 30 mins prior test measured after 24 hrs by novel object recognition test relative to vehicle-treated control. In kind it is functional.
The nature of series [5]: Plasma concentration in cannulated Sprague-Dawley rat at 1 mg/kg, iv after […] by LC-MS/MS analysis. The format is ADME, organism-based.
Series [6] can be described thus: Intrinsic clearance in human liver microsomes at 1 uM preincubated with microsomes followed by NADPH addition measured up to 45 mins by LC-MS/MS analysis. The format is ADME. The note with it: read-out: CLH.
Series [7] in a line: Ratio of unbound concentration in cannulated Sprague-Dawley rat brain to plasma at 1 mg/kg, iv. The format is ADME, organism-based. Conditions: read-out: K(p,uu,brain).
The target in another series is Cytochrome P450 3A4 (Homo sapiens, UniProt P08684). Description: Inhibition of human CYP3A4. The format is ADME.
The nature of series [8]: Drug uptake in cannulated Sprague-Dawley rat brain at 1 mg/kg, iv administered twice at 24 hrs interval followed by 0.75 min of isoflurane treatment post 15 min second dose measured after […] by LC-MS/MS analysis. In kind it is ADME, organism-based. Conditions: read-out: Drug uptake.
Series [9] can be described thus: Plasma clearance in cannulated Sprague-Dawley rat at 1 mg/kg, iv up to 24 hrs by LC-MS/MS analysis. The format is ADME, organism-based.
Series [10] deals with Rattus norvegicus. As to the kind of experiment: Cognitive enhancing effect in rat assessed as increase in recognition index at 3 mg/kg, ip treated 30 mins prior test measured after 24 hrs by novel object recognition test relative to vehicle-treated control. The format is functional.
The target of the next series is T3, Cytochrome P450 1A2 (Homo sapiens, UniProt P05177).
T3 sequence (P05177 whole entry): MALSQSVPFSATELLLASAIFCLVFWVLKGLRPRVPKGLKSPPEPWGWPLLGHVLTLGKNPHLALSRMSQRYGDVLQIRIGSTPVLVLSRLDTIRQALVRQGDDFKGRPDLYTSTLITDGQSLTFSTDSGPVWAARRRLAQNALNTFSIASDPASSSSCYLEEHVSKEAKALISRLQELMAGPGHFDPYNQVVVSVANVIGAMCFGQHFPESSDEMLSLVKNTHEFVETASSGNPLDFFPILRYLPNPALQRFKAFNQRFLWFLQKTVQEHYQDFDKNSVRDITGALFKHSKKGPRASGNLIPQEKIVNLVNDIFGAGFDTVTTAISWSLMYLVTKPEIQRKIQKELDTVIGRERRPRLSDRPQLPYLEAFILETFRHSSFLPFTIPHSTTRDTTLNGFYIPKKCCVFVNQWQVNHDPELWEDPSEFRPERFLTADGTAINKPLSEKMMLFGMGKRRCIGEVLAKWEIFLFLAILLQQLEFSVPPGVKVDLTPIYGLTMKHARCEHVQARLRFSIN
As to the kind of experiment: Inhibition of human CYP1A2. In kind it is ADME.

A short description of series [11]: Half life in cannulated Sprague-Dawley rat plasma at 1 mg/kg, iv by LC-MS/MS analysis. The format is ADME, organism-based.
In a further series the target is Cytochrome P450 2C9 (Homo sapiens, UniProt P11712). As to the kind of experiment: Inhibition of human CYP2C9. The format is ADME.
A short description of series [12]: Ratio of drug level in cannulated Sprague-Dawley rat brain to plasma at 1 mg/kg, iv. The format is ADME, organism-based.
A short description of series [13]: Fraction unbound in human plasma after 4 hrs by LC-MS/MS based equilibrium dialysis method. The format is ADME, cell-free.
The test system of series [14] is Rattus norvegicus. As to the kind of experiment: Toxicity in rat at >10 mg/kg, ip. In kind it is organism-based. Conditions: in vivo.
A short description of series [15]: Fraction unbound in rat plasma after 4 hrs by LC-MS/MS based equilibrium dialysis method. In kind it is ADME, cell-free.
Series [16] in a line: Volume of distribution at steady state in cannulated Sprague-Dawley rat at 1 mg/kg, iv up to 24 hrs by LC-MS/MS analysis. The format is ADME, organism-based. Conditions: in vivo.
Series [17] in a line: Intrinsic clearance in rat liver microsomes at 1 uM preincubated with microsomes followed by NADPH addition measured up to 45 mins by LC-MS/MS analysis. In kind it is ADME. The note with it: read-out: CLH. For orientation: Liver microsomes are a subcellular fraction often used to study metabolism.
In series [18] the test system is Rattus norvegicus. As to the kind of experiment: Cognitive enhancing effect in ip dosed rat assessed as increase in recognition index treated 30 mins prior test measured after 24 hrs by novel object recognition test relative to vehicle-treated control. In kind it is functional, organism-based.

The record followed here is ChEMBL document CHEMBL3860045 (Bioorg Med Chem Lett, 2016).

Chain of Cytochrome P450 3A4 (P08684 whole entry): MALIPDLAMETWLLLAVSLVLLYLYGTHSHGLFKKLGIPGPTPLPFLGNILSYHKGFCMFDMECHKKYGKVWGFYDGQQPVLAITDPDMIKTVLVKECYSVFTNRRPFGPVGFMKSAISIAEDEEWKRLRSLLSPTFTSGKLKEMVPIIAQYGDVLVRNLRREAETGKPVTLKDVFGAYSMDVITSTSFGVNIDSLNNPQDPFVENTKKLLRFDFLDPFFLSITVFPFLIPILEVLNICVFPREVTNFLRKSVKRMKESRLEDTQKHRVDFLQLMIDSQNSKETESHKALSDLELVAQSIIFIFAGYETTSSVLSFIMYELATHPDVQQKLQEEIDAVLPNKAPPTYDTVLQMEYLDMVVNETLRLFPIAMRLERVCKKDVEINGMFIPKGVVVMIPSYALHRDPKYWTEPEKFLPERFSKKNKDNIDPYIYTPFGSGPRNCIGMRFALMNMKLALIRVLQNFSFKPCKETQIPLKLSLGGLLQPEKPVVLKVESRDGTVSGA
Chain of Cytochrome P450 2D6 (P10635 whole entry): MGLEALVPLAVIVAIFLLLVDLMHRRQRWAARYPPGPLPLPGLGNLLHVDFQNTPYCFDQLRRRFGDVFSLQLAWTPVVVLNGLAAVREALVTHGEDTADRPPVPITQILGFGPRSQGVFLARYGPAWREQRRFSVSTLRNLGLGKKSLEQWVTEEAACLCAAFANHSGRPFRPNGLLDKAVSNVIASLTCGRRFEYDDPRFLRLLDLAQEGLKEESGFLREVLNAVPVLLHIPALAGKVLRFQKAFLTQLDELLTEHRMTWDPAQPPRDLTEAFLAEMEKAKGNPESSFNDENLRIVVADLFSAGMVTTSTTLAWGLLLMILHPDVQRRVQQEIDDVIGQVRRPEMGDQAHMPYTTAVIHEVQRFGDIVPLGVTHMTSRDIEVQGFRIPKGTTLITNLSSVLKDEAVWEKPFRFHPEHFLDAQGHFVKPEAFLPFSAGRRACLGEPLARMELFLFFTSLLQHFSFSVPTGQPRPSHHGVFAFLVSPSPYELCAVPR
Chain of Cytochrome P450 2C9 (P11712 whole entry): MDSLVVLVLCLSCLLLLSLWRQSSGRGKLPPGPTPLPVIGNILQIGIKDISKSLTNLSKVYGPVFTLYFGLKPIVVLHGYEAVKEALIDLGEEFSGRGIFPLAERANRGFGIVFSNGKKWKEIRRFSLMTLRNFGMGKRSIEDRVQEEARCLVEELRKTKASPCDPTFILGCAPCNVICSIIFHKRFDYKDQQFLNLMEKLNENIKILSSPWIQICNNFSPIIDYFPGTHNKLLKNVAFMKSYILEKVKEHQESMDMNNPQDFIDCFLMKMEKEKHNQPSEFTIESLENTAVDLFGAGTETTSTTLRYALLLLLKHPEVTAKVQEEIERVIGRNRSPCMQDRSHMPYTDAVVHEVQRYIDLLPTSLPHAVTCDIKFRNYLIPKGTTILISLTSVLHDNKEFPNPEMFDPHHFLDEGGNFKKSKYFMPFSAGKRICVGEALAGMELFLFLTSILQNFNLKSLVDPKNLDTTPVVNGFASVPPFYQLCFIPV

In general, IC50 refers to the concentration at which inhibition is half-maximal. Higher therefore signals weaker potency in that assay. For orientation: inhibition means the change of the read-out against control, counted positive when it falls. High values mean strong suppression, low ones little suppression. On to `CC(C)c1cc(CNC(=O)c2ccc(F)c(OC3CCN(C)CC3)c2)on1`, for which, in series [1], inhibition was half-maximal at 467 nM (IC50). Moreover, the inhibition in series [2] was > 50%.

On to `CC(C)c1cc(CNC(=O)c2ccc(C#N)c(OC3CCN(C)CC3)c2)on1`, for which it took 3350 nM to reach half-maximal inhibition in series [1] (IC50). Moreover, in series [2], the inhibition is > 50%.

Regarding `CC(C)c1cc(CNC(=O)c2cccc(OC3CCN(C)CC3)c2)on1`, the half-maximal inhibitory concentration (IC50) in series [1] came out at 640 nM. Moreover, in series [2], the inhibition is > 50%.

Regarding `CC(C)c1cc(CNC(=O)c2ccc(C(F)(F)F)c(OC3CCN(C)CC3)c2)on1`, the IC50 in series [1] is > 10000 nM. Also, the inhibition in series [2] was > 50%.

A word on the fraction unbound: it is the share of the substance not bound to proteins or other matrix. Low values mean extensive binding, high ones weak binding. What is called clearance is the rate of elimination divided by the concentration. One may read the half-life as the time needed for the level to fall by half in the phase considered. The low end stands for fast loss, the high end for slow loss. As usually defined, the Kp is the ratio of the level in a tissue or fluid to that in plasma or blood. In the case of `CC(C)c1cc(CNC(=O)c2ccc(Cl)c(OC3CCN(C)CC3)c2)on1`, the concentration for half-maximal inhibition (IC50) is > 30000 nM against Cytochrome P450 2D6; > 30000 nM at Cytochrome P450 3A4; 270 nM in [1]; > 30000 nM at Cytochrome P450 1A2; > 30000 nM on Cytochrome P450 2C9. Further, the fraction unbound at 4 h in series [3] was found to be 0.65; in [13], 0.31; in [15] it was 0.19. The Activity in the series on Rattus norvegicus [4] was 24%; with Rattus norvegicus [10], 28%; in the series on Rattus norvegicus [14], “Toxic”; in the series with Rattus norvegicus [18], “Dose-dependent effect”. For the same molecule, the concentration at […] was determined as 47.2 ng/mL in [5] and 16.3 ng/g in series [8]. The results for the CLint scaled at 1 µM in series [6] and in series [17] were 10.4 mL/min/kg and 42.5 mL/min/kg, respectively. In addition, the Kp uu in series [7] worked out at 0.71. Also, the clearance in series [9] is 1.54 mL/min/kg. Moreover, the half-life in series [11] (Sprague-Dawley, plasma) was determined as 1.95 h. For the same molecule, the inhibition in series [2] was > 50%. For the same molecule, the partition ratio (Kp) in [12] worked out at 0.34. In addition, the Vd in [16] (Sprague-Dawley, read-out: Vdss) turned out to be 0.3 L/kg.

What is called Vdss is the apparent volume that relates the amount in the body to the concentration in plasma or blood. Low readings indicate confinement near the circulation, high ones extensive tissue distribution. With `COc1ccc(C(=O)NCc2cc(C(C)C)no2)cc1OC1CCN(C)CC1`, the free fraction (fraction unbound) at 4 h in [3] was 0.36. In addition, the concentration at […] in [5] was 129 ng/mL; in [8], 23.4 ng/g. Also, the results for the CLint scaled at 1 µM in series [6] and in series [17] were 10.4 mL/min/kg and 95 mL/min/kg, respectively. In series [11] (in vivo), this molecule gave a t1/2 of 0.55 h. In series [12], the Kp is 0.18. For the same molecule, the results for the Fu in series [13] (4 h) and in series [15] (4 h) were 0.67 and 0.35, respectively. The molecule further yielded a distribution volume (Vdss) in series [16] (24 h) of 3.2 L/kg.

Consider `CC(C)c1cc(CNC(=O)c2cccc(OC3CCN(C(C)C)CC3)c2)on1`, for which, in [1], half-maximal inhibition (IC50) was put at 1840 nM. The inhibition in [2] is > 50%.

For `COc1cc2c(cc1OC)C(=O)C(CC1CCN(Cc3ccccc3)CC1)C2` (stereo not drawn), the Activity entry with Rattus norvegicus [18] was “Dose-dependent effect”.
